Experimental data from US7160898B2, “Pharmacological treatment for sleep apnea” (Board of Trustees of The University of Illinois, priority 2002, dated 2007).

Assays:
[1] = system: 5-hydroxytryptamine receptors; conditions: anesthetized animals, cited from earlier work; for apnea after intravenous administration: duration increased dose-dependently
sleep apnea syndrome = conditions: cited from earlier work; for effect in patients with sleep apnea: literature reports
[2] = system: animal model of sleep apnea; conditions: U.S. Pat. No. 5,075,290; cited from earlier work
[3] = system: spontaneous sleep-related central apneas; assay: Induction and suppression of sleep apneas by serotonin and GR38032F (Example 3); assay type: in vivo, rat (Sprague-Dawley); conditions: 6 hour recording
Protocol: Ten adult male Sprague-Dawley rats (Sasco-King, Wilmington, Mass.; 300 g) were maintained on a 12-h light (08:00–20:00 hour)/12-hour dark (20:00–08:00) cycle for one week, housed in individual cages, and given ad libitum access to food and water. Following the one week of acclimatization, animals were prepared for physiological testing via the surgical procedures (i.e., implantation of cortical electrodes for EEG recording and neck muscle electrodes for EMG recording, implantation of a radiotelemetry transmitter for BP and HP monitoring) as set forth above in Example 1. After completion of the surgical procedures, animals were allowed a one week recovery period prior to use in the present study. Each animal was recorded on four occasions, with recordings for an individual animal separated by at least three days. Fifteen minutes prior to each recording, each animal received (via intraperitoneal injection), in random order, one of the following: (a) saline solution (control); (b) 0.79 mg/kg serotonin; (c) 0.1 mg/kg GR38032F plus 0.79 mg/kg serotonin; or (d) 0.1 mg/kg GR38032F. For the GR38032F+serotonin test group, 0.1 mg/kg GR38032F was administered at time 09:30 followed by 0.79 mg/kg serotonin at time 09:45. Polygraphic recordings were made from 10:00–16:00. Respiration BP, EEG, and EMG data were determined and recorded via the experimental procedure as specifically set forth above in Example 2. As in Example 2, sleep apneas, defined as cessation of respiratory effort for at least 2.5 s, were scored for each recording session and were associated with the stage in which they occurred: NREM or REM sleep. The duration requirement of 2.5 s represents at least two “missed” breaths, which is analogous to a 10-s apnea duration requirement in humans. The effects of sleep stage (NREM vs REM) and injection (control vs. administration of either serotonin alone, GR38032F+serotonin, or GR38032F alone) on apnea indexes, respiratory pattern, BP, and HP were tested using analysis of variance (ANOVA) with repeated measures. Multiple comparisons were controlled using Fisher's protected least-significance difference (PLSD). One-way ANOVA was also performed by nonparametric (Kruskal-Wallis) analysis. Conclusions using parametric and nonparametric ANOVA were identical in all cases.

sleep/wake architecture = assay: Sleep/wake architecture after 5-HT and GR38032F (Example 3); assay type: in vivo, rat (Sprague-Dawley); conditions: i.p.
Protocol: Sleep and waking states were assessed using the biparietal EEG and nuchal EMG signals on 10-second epochs as described by Bennington et al. [Sleep, 17:28–36 (1994)]. This software discriminated wakefulness (W) as a high frequency low amplitude EEG with a concomitant high EMG tone, NREM sleep by increased spindle and […] activity together with decreased EMG tone, and REM sleep by a […] activity and an absence of EMG tone. Sleep efficiency was measured as the percentage of total recorded epochs staged as NREM or REM sleep.
(§1) Each animal was recorded on four occasions, with recordings for an individual animal separated by at least three days. Fifteen minutes prior to each recording, each animal received (via intraperitoneal injection), in random order, one of the following: (a) saline solution (control); (b) 0.79 mg/kg serotonin; (c) 0.1 mg/kg GR38032F plus 0.79 mg/kg serotonin; or (d) 0.1 mg/kg GR38032F. For the GR38032F+serotonin test group, 0.1 mg/kg GR38032F was administered at time 09:30 followed by 0.79 mg/kg serotonin at time 09:45. Polygraphic recordings were made from 10:00–16:00.
(§2) Respiration BP, EEG, and EMG data were determined and recorded via the experimental procedure as specifically set forth above in Example 2. As in Example 2, sleep apneas, defined as cessation of respiratory effort for at least 2.5 s, were scored for each recording session and were associated with the stage in which they occurred: NREM or REM sleep. The duration requirement of 2.5 s represents at least two “missed” breaths, which is analogous to a 10-s apnea duration requirement in humans.
(§3) The effects of sleep stage (NREM vs REM) and injection (control vs. administration of either serotonin alone, GR38032F+serotonin, or GR38032F alone) on apnea indexes, respiratory pattern, BP, and HP were tested using analysis of variance (ANOVA) with repeated measures. Multiple comparisons were controlled using Fisher's protected least-significance difference (PLSD). One-way ANOVA was also performed by nonparametric (Kruskal-Wallis) analysis. Conclusions using parametric and nonparametric ANOVA were identical in all cases.

RR, VE, mean BP, HP = assay: Respiratory pattern, BP and HP after serotonin and GR38032F (Example 3); assay type: in vivo, rat (Sprague-Dawley)
Protocol: Similar software (Experimenters' Workbench; Datawave Technologies, Longmont, Colo.) was employed to analyze the blood pressure waveform; for each beat of each recording, systolic (SBP) and diastolic (DBP) blood pressures and pulse interval were measured. The pulse interval provided a beat by beat estimate of HP. Mean BP (MBP) was estimated according to the weighted average of SBP and DBP for each beat: MBP=DBP+(SBP−DBP)/3. The parameters for each beat were also classified according to the sleep/wake state and recording hour during which they occurred.
as §1, §2
as §3, with “Conclusions using parametric and nonparametric ANOVA were identical in all cases.” left out

[4] = percent recording time, 6 hours, 5-HT 0.79 mg/kg, GR38032F 0.1 mg/kg, mean ± SE

## CC(N)Cc1c[nH]c2ccc(O)cc12 (centres unmarked) [a-methyl-5-hydroxytryptamine]
[1]
  apnea after intravenous administration: produced transient apnea

## Cn1c(=O)c2[nH]cnc2n(C)c1=O [theophylline]
Sleep apnea syndrome
  effect in patients with sleep apnea: may benefit patients with central apnea but appears to be of no use in adult patients with obstructive apnea

## medroxyprogesterone
Sleep apnea syndrome
  effect in patients with sleep apnea: no consistent benefit in OSAS

## O=C1CC2(CCCC2)CC(=O)N1CCCCN1CCN(c2ncccn2)CC1 [buspirone]
Sleep apnea syndrome; Mendelson et al. 1991
  patients with sleep apnea syndrome with reduced apnea index: 4 of 5
Sleep apnea syndrome
  effect in patients with sleep apnea: eliminate post-surgical apneustic breathing in one child

## Fc1ccc([C@@H]2CCNC[C@H]2COc2ccc3c(c2)OCO3)cc1 [paroxetine]
Sleep apnea syndrome
  effect in patients with sleep apnea: benefit some but not all patients with sleep apnea syndrome

## C=CCN1CC[C@]23c4c5ccc(O)c4O[C@H]2C(=O)CC[C@@]3(O)[C@H]1C5 [naloxone]
Sleep apnea syndrome
  effect in patients with sleep apnea: only slightly helpful

## N[C@@H](Cc1c[nH]c2ccccc12)C(=O)O [L-tryptophan]
Sleep apnea syndrome
  effect in patients with sleep apnea: may have a beneficial effect on sleep apnea syndrome

## Cc1[nH]c2ccc(O)cc2c1CCN [2-methyl-5-hydroxytryptamine]
[1]
  apnea after intravenous administration: produced transient apnea

## CCN1CC(CCN2CCOCC2)C(c2ccccc2)(c2ccccc2)C1=O (centres unmarked) [doxapram]
Sleep apnea syndrome
  effect in patients with sleep apnea: decrease the length of apneas but did not alter the average arterial oxygen saturation

## O=C(c1ccc(F)cc1)C1CCN(CCn2c(=O)[nH]c3ccccc3c2=O)CC1 [ketanserine]
[1]
  antagonism of agonist-induced transient apnea: significantly antagonized

## CC[C@@H](CO)NC(=O)[C@@H]1C=C2c3cccc4c3c(cn4C)C[C@H]2N(C)C1 [methysergide]
[1]
  antagonism of agonist-induced transient apnea: significantly antagonized

## Nc1ncnc2c1ncn2[C@@H]1O[C@H](CO)[C@@H](O)[C@H]1O [adenosine]
[2]
  reduction of apnea: somewhat effective in reducing apnea

## CC(=O)Nc1nnc(S(N)(=O)=O)s1 [acetazolamide]
Sleep apnea syndrome
  effect in patients with sleep apnea: variable improvement in individuals with primary central apneas but caused an increase in obstructive apneas

## NCCc1c[nH]c2ccc(O)cc12 [serotonin, 5-hydroxytryptamine]
[3]; i.p., serotonin 0.79 mg/kg, GR38032F 0.1 mg/kg
  spontaneous apnea index during NREM sleep: not affected by any drug treatment
[3]; serotonin 0.79 mg/kg i.p.
  increase of spontaneous apnea expression during REM sleep compared to control: > 250%
sleep/wake architecture; 6 hours of polygraphic recording
  effect on sleep architecture: had no effect on sleep architecture
sleep/wake architecture; [4]
  % NREM: 59.9 ± 3.3%
  % REM: 6.5 ± 1.1%
  % Wakefulness: 30.2 ± 3.2%
RR, VE, mean BP, HP; i.p., serotonin 0.79 mg/kg, GR38032F 0.1 mg/kg, data not shown
  effect on RR, VE, mean BP, HP, or PS apnea index: had no effect on sleep, cardiovascular variables, RR, or VE
RR, VE, mean BP, HP; serotonin 0.79 mg/kg i.p.
  beat-to-beat heart rate and BP variability (coefficients of variation): unaffected
RR, VE, mean BP, HP; serotonin 0.79 mg/kg i.p., 6 hour recording period
  changes in heart rate or mean BP: did not elicit changes in either heart rate or mean BP
[1]
  apnea after intravenous administration: produced transient apnea

## CNCCCC1c2ccccc2C=Cc2ccccc21 [Protriptyline]
Sleep apnea syndrome
  effect in patients with sleep apnea: variable results and frequent and significant side effects

## CNCCC(Oc1ccc(C(F)(F)F)cc1)c1ccccc1 (centres unmarked) [fluoxetine]
Sleep apnea syndrome
  effect in patients with sleep apnea: benefit some but not all patients with sleep apnea syndrome
